This is an account of results in US9487462B2, “Inhibitors of matrix metalloproteinases” (PharmaHungary 2000 Kft., priority 2010, dated 2016).

The structures appear in SMILES notation. Where two headings read alike, the source gives them in different places. Where only a bound is given, the exact number is not on record here.

The nature of data set [1]: Cytotoxicity, alamarBlue viability, HCT116. Format: cell-based. Conditions: human, HCT116 colon tumor cells, 48 hours incubation, read-out: HCT116 LC50. The procedure:
(§1) Beside the inhibitory effect on MMPs we tested the cytotoxicity of the selected compounds. These measurements were done in parallel on two cell lines. One of them was the healthy human fibroblast cell line MRC-5 while the other was the human colon tumor cell line HCT116. The viability of the cells was monitored using alamarBlue. This dye is reduced by the cells resulting in an increased fluorescent signal which is proportional to the number of living cells. Cells were incubated with the dilutions of the tested compounds for 48 hours then alamarBlue was added to them for 4 hours. After that the fluorescence changes were detected using excitation at 540 nm and emission wavelength of 590 nm by a Wallac 1420 Microplate Reader. IC50 values were determined for the compounds using six concentrations and duplicate points for each concentration.
A general note: The colour change of resazurin is a common sign of viable cells or microbes.

The next data set addresses MMP2 (Homo sapiens, UniProt P08253). Description: MMP activity assay (fluorogenic substrate), MMP2 catalytic domain. Conditions: Table 2; read-out: MMP2 IC50. Format: biochemical. Here is the method: (§2) MMP activity assays were conducted as follows: MMP2, MMP9, MMP13 catalytic domain was expressed in E. coli in form of inclusion bodies followed by refolding and purification.
(§3) The Protocol of the Activity Assay:
(§4) Stock solution of substrate (Mca-Lys-Pro-Leu-Gly-Leu-Dpa-Ala-Arg-NH2) was prepared in DMSO at a concentration of 6 mM. Assays were performed in an assay buffer (50 mM Tris pH 7.5, 300 mM NaCl, 10 μM ZnSO4, 5 mM CaCl2, 0.005% Brij-35). The final DMSO concentration in all assays was 1.0%. […] The assays were carried out at 37° C. The fluorescence changes, resulting from the substrate cleavage, were detected using excitation at 340 nm and emission wavelength of 405 nm using a Wallac 1420 Microplate Reader. The reaction mixtures were preincubated with the inhibitors for 30 minutes. The reactions were started by the addition of MMP substrate, and the fluorescence intensity changes were measured after 60 minutes. The obtained fluorescence values were normalized and % inhibition values calculated. Dose response curves were determined from 6 concentration points using three fold dilution steps, each concentration point was determined in duplicate. IC50 values were calculated from the dose response curves.

Data set [2] concerns the target T1, MMP13 (Homo sapiens (Human), UniProt P45452). Description: In vitro zymography assay (gelatin), MMP-13. Format: biochemical. Conditions: % ± SD; for % inhibition MMP-13 (50 kDa): 1 μM; for inhibition at 100 µM: read-out: % inhibition MMP-13 (50 kDa). The procedure:
(§5) MMP-2 and MMP-9 enzymes were isolated from rat hearts and from rat spleen while human, recombinant MMP-1 and MMP-13 enzymes used were commercial. MMP-2, -9, -13 enzymes were separated by electrophoresis during non-reducing conditions on 8% SDS-polyacrylamide gels copolymerized with 2 mg/ml gelatin from porcine skin (Sigma Aldrich) while MMP-1 was separated under the same conditions on 8% SDS-polyacrylamide gels copolymerized with 2 mg/ml casein (Sigma Aldrich). […] In case of MMP-13 p-aminophenylmercuric acetate (APMA) was used for enzyme activation at 37° C. for 30 min. After electrophoresis, gels were washed in 2.5% Triton-X 100 with agitation and then incubated for 20 hrs at 37° C. in enzyme incubation buffer (50 mM Tris-HCl, pH 7.5, containing 5 mM CaCl2, 200 mM NaCl) with or without MMP inhibitor. Zymographic gels were stained in Coomassie Brilliant Blue R-250 and de-stained. Gelatin and casein zymograms were scanned. MMP activity is detected as a white zone on a blue background and the clear bands in the gel can be quantified by densitometry. The obtained density values were measured and % inhibition values calculated (Kupai et al., 2010). The table below summarizes the prescreen inhibition values determined for different MMP inhibitors on MMP1, -2, -9, -13.

The target in data set [3] is T2, MMP1 (Homo sapiens (Human), UniProt P03956). Put plainly: MMP activity assay (fluorogenic substrate), MMP1. Format: biochemical. Conditions: Table 2; read-out: MM1 IC50.
Target sequence in this assay (P03956 100-469, species assumed): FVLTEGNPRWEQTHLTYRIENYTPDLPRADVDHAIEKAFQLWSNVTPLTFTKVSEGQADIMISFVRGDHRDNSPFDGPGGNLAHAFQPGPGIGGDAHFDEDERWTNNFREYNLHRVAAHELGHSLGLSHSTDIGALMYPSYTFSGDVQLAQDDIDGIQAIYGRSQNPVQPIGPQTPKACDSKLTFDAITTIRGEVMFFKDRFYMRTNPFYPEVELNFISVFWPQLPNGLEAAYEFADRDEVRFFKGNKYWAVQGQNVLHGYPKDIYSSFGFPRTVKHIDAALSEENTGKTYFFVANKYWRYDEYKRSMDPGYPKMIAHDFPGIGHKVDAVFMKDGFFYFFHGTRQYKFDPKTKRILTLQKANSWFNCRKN
Data set [4] is described as follows: Cytotoxicity, alamarBlue viability, MRC-5. Format: cell-based. The following applies: human, MRC-5 fibroblast cells, 48 hours incubation, read-out: MRC-5 LC50. The procedure:
as §1

Data set [5] deals with T1, MMP13. Description: MMP activity assay (fluorogenic substrate), MMP13 catalytic domain. Format: biochemical. Here is the method:
as §2, §3
as §4, with “The fluorescence changes, resulting from the substrate cleavage, were detected using excitation at 340 nm and emission wavelength of 405 nm using a Wallac 1420 Microplate Reader.” left out

The next data set addresses MMP9 (Homo sapiens, UniProt P14780). Description: MMP activity assay (fluorogenic substrate), MMP9 catalytic domain. Format: biochemical. Conditions: Table 2. The procedure:
as §2, §3, §4

In a further data set the target is MMP-2 (Rattus norvegicus (Rat), UniProt P33436). Description: In vitro zymography assay (gelatin), MMP-2. Format: biochemical. The procedure:
as §5

In data set [6] the target is T2, MMP1. Put plainly: In vitro zymography assay (casein), MMP-1. Format: biochemical. Conditions: % ± SD. Here is the method:
as §5
Target sequence in this assay (P03956 100-469): as the sequence (P03956 100-469, species assumed) above

Data set [7] concerns neonatal rat cardiac myocytes. Description: Cytoprotective effect in cardiac myocytes subjected to hypoxia and reoxygenation. Format: cell-based. Here is the method:
Neonatal rat hearts were digested and isolated cardiomyocytes were plated onto 24-well plastic plates at […]. The cells were maintained at 37° C. in a humidified atmosphere of 5% CO2 and 95% air in a CO2 incubator until confluence was reached. Cultures at day 3 were used for treatments. Cells were kept under normoxic or simulated ischemic conditions, i.e. the growth medium was changed to a normoxic or hypoxic solution and the cells were incubated under 95% air and 5% CO2 or 95% N2 and 5% CO2 at 37° C. for 4 h, respectively as described in detail (Gorbe A, Giricz Z, Szunyog A, Csont T, Burley D S, Baxter G F, Ferdinandy P. Role of cGMP-PKG signaling in the protection of neonatal rat cardiac myocytes subjected to simulated ischemia/reoxygenation. Basic Res Cardiol. 105:643-650, 2010). The positive control ilomastate (0.5 microM) and MMP-inhibitors at different effective concentrations (EC 5, EC 10, EC 20, and EC50 as determined in previous test examples) were applied during normoxia or simulated ischemia and also during reoxygenation. The vehicle was DMSO. Cell viability was determined after Calcein A M fluorescent staining as described (Karliner J S, Honbo N, Summers K, Gray M O, Goetzl E J. The lysophospholipids sphingosine-1-phosphate and lysophosphatidic acid enhance survival during hypoxia in neonatal rat cardiac myocytes. J Mol Cell Cardiol, 33:1713-7, 2001). Total cell count was determined after digitonin treatment to permeabilize the cells by using propidium iodine fluorescent staining (Roy S S, Hajnoczky G. Calcium, mitochondria and apoptosis studied by fluorescence measurements. Methods. 46:213-223, 2008).

[8] abbreviates: % ± SD, read-out: % inhibition MMP-2 (72 kDa).

Chain of MMP-2 (P33436 110-662): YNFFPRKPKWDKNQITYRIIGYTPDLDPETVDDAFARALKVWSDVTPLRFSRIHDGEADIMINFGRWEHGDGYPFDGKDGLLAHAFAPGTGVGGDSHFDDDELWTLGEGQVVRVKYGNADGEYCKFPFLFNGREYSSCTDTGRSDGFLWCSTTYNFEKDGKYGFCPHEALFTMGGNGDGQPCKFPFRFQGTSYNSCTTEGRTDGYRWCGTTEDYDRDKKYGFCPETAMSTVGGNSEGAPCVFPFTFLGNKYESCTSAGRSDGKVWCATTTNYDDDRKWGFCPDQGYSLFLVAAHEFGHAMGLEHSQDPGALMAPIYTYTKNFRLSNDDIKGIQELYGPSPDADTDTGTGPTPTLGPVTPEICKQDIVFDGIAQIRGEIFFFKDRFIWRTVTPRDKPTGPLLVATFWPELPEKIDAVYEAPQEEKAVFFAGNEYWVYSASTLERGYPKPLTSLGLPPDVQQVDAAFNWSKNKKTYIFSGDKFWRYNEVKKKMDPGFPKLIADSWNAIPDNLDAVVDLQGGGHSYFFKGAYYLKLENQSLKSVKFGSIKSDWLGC

As usually defined, the IC50 is the concentration needed to halve the response being measured. As usually defined, the inhibition is the change of the read-out against control, counted positive when it falls. `O=C(O)c1c[nH]c(CN(Cc2ccc(F)cc2)Cc2ccc(OC(c3ccccc3)c3ccccc3)cc2)n1` [Compound 22, 2-[({[4-(Diphenylmethoxy)phenyl]methyl}[(4-fluorophenyl)methyl]amino)methyl]-1H-imidazole-4-carboxylic acid]: the values for the CC50 at 48 h in data set [1] and in [4] were 0.7 µM and 2 µM, respectively. The half-maximal inhibitory concentration (IC50) came to 35 µM at MMP2; 16 µM on MMP1 [3]; 0.28 µM at MMP13 [5] (Table 2, read-out: MMP13 IC50); 8 µM on MMP9. For the same compound, on MMP13 [2], the “% inhibition MMP-13 (50 kDa)” value is reported as “No inhibition”. Moreover, the inhibition at 100 µM at MMP13 [2] came out at 71.7 ± 4.49%.

For the compound `O=C(O)c1c[nH]c(CN(Cc2ccc(F)cc2)Cc2ccc(OCc3ccccc3)cc2)n1` [Compound 30, 2-[({[4-(Benzyloxy)phenyl]methyl}[(4-fluorophenyl)methyl]amino)methyl]-1H-imidazole-4-carboxylic acid], the CC50 at 48 h in data set [1] came to 6 µM; in data set [4], 30 µM. Besides, the IC50 came to 6.6 µM at MMP2; 0.081 µM on MMP-2 (zymography, Table 8, read-out: IC50 on MMP-2); 3.9 µM on MMP1 [3]; 1.76 µM on MMP13 [5] (Table 2, read-out: MMP13 IC50); 13 µM on MMP9. In addition, the “% inhibition MMP-2 (72 kDa)” value at MMP-2 (1 μM, % ± SD) is recorded as “No inhibition”. In addition, the inhibition at 100 µM on MMP-2 (setting [8]) came to 100%; on MMP1 [6] (read-out: % inhibition MMP-1 (52 kDa)), 63.4 ± 18.3%; at MMP1 [6] (read-out: % inhibition MMP-1 (55 kDa)) it was 61.1 ± 6.78%. At MMP1 [6] (1 μM), the “% inhibition MMP-1 (52 kDa)” value is “No inhibition”. In addition, the “% inhibition MMP-1 (55 kDa)” value at MMP1 [6] (1 μM) is on record as “No inhibition”.

In the case of `O=C(O)c1csc(CN(Cc2ccc(OCc3cccnc3)cc2)Cc2cccnc2)n1` [Compound 10, 2-[({[4-(Pyridin-3-ylmethoxy)phenyl]methyl}(pyridin-3-ylmethyl)amino)methyl]-1,3-thiazole-4-carboxylic acid], the CC50 at 48 h in [1] and in data set [4] was 20 µM in each case. Moreover, the IC50 on MMP2 is above 500 µM; on MMP1 [3], above 500 µM; at MMP13 [5] (Table 2, read-out: MMP13 IC50), 1.5 µM; against MMP9, above 500 µM. Also, the “% inhibition MMP-13 (50 kDa)” value on MMP13 [2] is on record as “No inhibition”. Besides, on MMP13 [2], the inhibition at 100 µM turned out to be 53.6 ± 18.9%. The “Cytoprotective effect, % cell survival as compared to vehicle DMSO” value in data set [7] (normoxia, EC5 concentration 0.3 microM) is 112 ± 3 %; in [7] (normoxia, EC10 concentration 1.0 microM), 112 ± 1 %; in data set [7] (normoxia, EC20 concentration 3.0 microM), 115 ± 3 %; in data set [7] (normoxia, EC50 concentration 9.0 microM) it was 108 ± 1%; in [7] (simulated ischemia, EC5 concentration 0.3 microM) it was 117 ± 2 %; in [7] (simulated ischemia, EC10 concentration 1.0 microM) it was 119 ± 2 %. In addition, the “Cytoprotective effect, % cell survival as compared to vehicle DMSO” value in data set [7] (simulated ischemia, EC20 concentration 3.0 microM) is recorded as 123 ± 6 %; in data set [7] (simulated ischemia, EC50 concentration 9.0 microM) it was 136 ± 2 %.

`O=C(O)c1csc(CN(Cc2ccc(OCc3ccccc3)cc2)Cc2cccc(F)c2)n1` [Compound 5, 2-[({[4-(Benzyloxy)phenyl]methyl}[(3-fluorophenyl)methyl]amino)methyl]-1,3-thiazole-4-carboxylic acid]: the CC50 at 48 h in data set [1] turned out to be 3.5 µM; in data set [4], 43 µM. Moreover, the IC50 was 25 µM on MMP2; 6 µM on MMP1 [3]; 4.7 µM at MMP13 [5] (Table 2, read-out: MMP13 IC50); 9.8 µM at MMP9. The “% inhibition MMP-2 (72 kDa)” value at MMP-2 (1 μM, % ± SD) was “No inhibition”. For the same compound, the inhibition at 100 µM at MMP-2 (setting [8]) turned out to be 11.1 ± 1.58%.

For `O=C(O)c1csc(CN(Cc2ccc(OCc3ccncc3)cc2)Cc2cccnc2)n1` [Compound 12, 2-{[(Pyridin-3-ylmethyl)({[4-(pyridin-4-ylmethoxy)phenyl]methyl})amino]methyl}-1,3-thiazole-4-carboxylic acid], the CC50 at 48 h is 37 µM in data set [1] and 90 µM in [4]. For the same compound, the IC50 at MMP2 was above 500 µM; at MMP1 [3] it was above 500 µM; at MMP13 [5] (Table 2, read-out: MMP13 IC50) it was 8.5 µM; on MMP9, above 500 µM. Further, the inhibition at 1 µM at MMP-2 (1 μM, % ± SD, read-out: % inhibition MMP-2 (72 kDa)) amounted to 5.59 ± 11.8%. Also, at MMP-2 (setting [8]), the inhibition at 100 µM was found to be 4.78 ± 7.18%.

With `O=C(O)c1csc(CN(Cc2ccc(OCc3ccccc3)cc2)Cc2cccnc2)n1` [Compound 14, 2-[({[4-(Benzyloxy)phenyl]methyl}(pyridin-3-ylmethyl)amino)methyl]-1,3-thiazole-4-carboxylic acid], the CC50 at 48 h in data set [1] was determined as 19 µM; in [4], 42 µM. Moreover, the IC50 at MMP2 was 90 µM; at MMP1 [3] it was 240 µM; on MMP13 [5] (Table 2, read-out: MMP13 IC50) it was 8 µM; on MMP9 it was above 500 µM. The “% inhibition MMP-2 (72 kDa)” value on MMP-2 (1 μM, % ± SD) was “No nhibiton”. Moreover, on MMP-2 (setting [8]), the inhibition at 100 µM is 100%.

For `CNC(=O)[C@H](Cc1c[nH]c2ccccc12)NC(=O)[C@@H](CC(=O)NO)CC(C)C` [ilomastat, reference compound], the half-inhibitory concentration (IC50) against MMP-2 worked out at 0.00071 µM; on MMP13 [5] (read-out: IC50 on MMP13), 0.0002 µM. For the same compound, in [7] (positive control, 0.5 microM), the “cytoprotective effect as compared to vehicle-treated cells” value is “approximately 120%”.
